Measured values as given in patent US20130281313A1, “PROGNOSTIC AND/OR PREDICTIVE BIOMARKERS AND BIOLOGICAL APPLICATIONS THEREOF” (INSTITUT GUSTAVE ROUSSY, priority 2010, published 2013).

Tests used:
A549 cells [1] = experiment: Cytofluorometric assessment of cell death (DiOC6(3)/PI co-staining); type: cell-based, human; conditions: A549 cells, 75 μM CDDP
Method: Unless otherwise specified, chemicals were purchased from Sigma-Aldrich (St. Louis, USA), culture media and supplements for cell culture from Gibco-Invitrogen (Carlsbad, USA) and plasticware from Corning (Corning, USA). […] Orlistat (Xenical®) was obtained from Roche (Basel, Switzerland). […] Undissolved material was removed by two sequential rounds of centrifugation at 12,000 G (5 min, room temperature, RT), supernatants were collected and stored at −80° C. under protection from light until use. In low-throughput experiments, all cell lines were treated with 2.5 mM pyridoxine (PN), exception made for A549 cells that received 5 mM PN.
To avoid depleting the siRNA library of selected sequences, siRNAs for validation experiments were purchased as custom molecules from Sigma-Aldrich. For low-throughput experiments, (see below for the transfection protocols employed in the siRNA screen), siRNA were transfected in A549 cells with Oligofectamine™ reagent (Invitrogen), following the manufacturer's instructions. Transfection with a non-targeting siRNA (siUNR) was employed as a negative control condition. Forty-eight hours after transfection, siRNA-mediated target downregulation was assessed by immunoblotting (see below).
All cytofluorometric determinations were carried out a FACSCalibur or a FACScan cytofluorometer (BD Biosciences, San Jose, USA) equipped with a 70 μm nozzle.
First line statistical analysis of cytofluorometric results was performed by using the CellQuest™ software (BD Biosciences), by gating on the events characterized by normal forward scatter and side scatter parameters. Apoptosis- and cell cycle-related data were further analyzed with Microsoft Excel (Microsoft Co., Redmond, USA) and statistical significance was assessed by means of two-tailed Student's t test (p<0.05).

Saccharomyces cerevisiae = experiment: Yeast clonogenic survival; type: cell-based; conditions: yeast cells, pre-incubated with 1 mM AOAA before CDDP
Method: The haploid WT Saccharomyces cerevisiae strain BY4741 (MATa; his3Δ1; leu2Δ0; met15Δ0; ura3Δ0), its diploid counterpart BY4743 (MATa/MATα; his3Δ1/his3Δ1; leu2Δ0/leu2Δ0; MET15/met15Δ0; LYS2/lys2Δ0; ura3Δ0/ura3Δ0) as well as the null mutants employed in this study were obtained from were obtained from Euroscarf (Frankfurt, Germany). For large-scale experiments (see also FIG. 9), yeast cells were cultured on a routine basis at 28° C., on yeast extract peptone dextrose (YEPD) medium containing 1% yeast extract (Difco Laboratories, Detroit, USA), 2% bacto peptone (Difco Laboratories) and […] {Madeo, 2002}. […]
In all settings, cell number was then quantified by means of a CASY® cell counter (Schärfe System, Reutlingen, Germany) and 500 cells from each experimental condition were seeded on three parallel YEPD plates. Following 3 days of incubation at 28° C., plates were finally subjected to the quantification of colony forming units (CFUs). For each genotype or experimental condition, clonogenic survival was calculated as the ratio between the number of CFUs observed in treated and untreated conditions.

[2] = system: isolated rat liver mitochondria; experiment: Large-amplitude swelling of isolated mitochondria; conditions: cell-free experiments
Method: Mitochondria were isolated from the liver of male Wistar Kyoto rats (Charles River Laboratories Inc., Wilmington, USA) by differential centrifugation, as previously described {Zischka, 2008}. Briefly, immediately after organ collection, livers were homogenized with a glass teflon homogenizer in an isolation buffer containing 10 mM triethanolamine, 10 mM acetic acid, 280 mM sucrose, 0.2 mM EGTA (pH adjusted to 7.4 with KOH). Homogenates were cleared from debris and nuclei by two rounds of centrifugation at 750 G (10 min, 4° C.). […]
For large-amplitude swelling determinations, mitochondria were resuspended in swelling buffer (10 mM Tris-MOPS pH 7.4, 200 mM sucrose, 5 mM succinate, 1 mM phosphate, 10 μM EGTA and 2 μM rotenone) and pre-incubated for 5 min at RT with swelling buffer (negative control) or either of the following permeability transition inhibitors: 5 or 10 μM bongkrekic acid (BA), 1 or 5 μM cyclosporine A (CsA); 0.1 or 0.5 mM reduced glutathione (GSH) or 0.5 or 2 mM N-acetylcysteine (NAC). […] Permeability transition-induced large-amplitude swelling was assessed by measuring light scattering of mitochondrial suspensions at 540 nm on a standard microplate absorbance reader (μ-Quant™, Bio-Tek, Bad Friedrichshall, Germany) every 5 min over a total assay time of 30 min (at RT), as previously described {Zischka, 2008}. […]

A549 cells [3] = experiment: Transcriptome studies (mRNA microarrays); type: cell-based, human
Method: NSCLC A549 cells were treated with 100 μM CDDP, 75 μM C2-CER or 100 μM CdCl2 for 12 h, or with 50 μM CDDP, C2-CER or CdCl2 for 24 h. Thereafter, cells were collected and lysed for RNA extraction of following established procedures {de La Motte Rouge, 2007}. mRNA expression changes were quantified on G4112A 44 k Whole Human Genome Oligo Microarrays (Agilent Technologies, Santa Clara, USA), as previously reported {Castedo, 2006}. mRNA microarrays underwent standardized post-hybridization processing, image acquisition and analysis (see below) {Castedo, 2006}.
Data from microarray experiments were analyzed with the Rosetta Resolver® System (Rosetta Biosoftware, Seattle, USA). The threshold for statistical significance of probe signals (Intensity) was set at p=10^−5. […] For each mRNA, fold change (FC) was then defined as Intensitysample/Intensitycontrol when Intensitysample>Intensitycontrol, or as—(Intensitycontrol/Intensitysample) when Intensitysample<Intensitycontrol. Ratios were calculated as Intensitysample/Intensitycontrol.

[4] = 12 h, 100 μM CDDP, 75 μM C2-CER or 100 μM CdCl2, vs untreated cells
[5] = 24 h, 50 μM CDDP, C2-CER or CdCl2, vs untreated cells

NOCC(=O)O [AOAA, aminooxyacetic acid]
toxicity of CDDP upon addition of the CCBL1 inhibitor (A549 cells [1]): reduced the toxicity of CDDP | toxicity of CDDP upon addition of the CCBL1 inhibitor (clonogenic survival) (Saccharomyces cerevisiae): reduced the toxicity of CDDP

[Cl][Cd][Cl] [CdCl2, cadmium chloride]
direct mitochondrion-permeabilizing effects [2]: can mediate direct mitochondrion-permeabilizing effects | Fold change, ADAR (NM_001111) transcript (A549 cells [3]; [4]): n.s. | Fold change, ALDH7AT (NM_001182) transcript (A549 cells [3]; [4]): −1.65 | Fold change, CD151 (NM_004357) transcript (A549 cells [3]; [4]): n.s. | Fold change, CLIC1 (NM_001288) transcript (A549 cells [3]; [4]): 4.60 | Fold change, COMMO9 (NM_014186) transcript (A549 cells [3]; [4]): 1.85 | Fold change, COX5B (NM_001802) transcript (A549 cells [3]; [4]): n.s. | Fold change, COX7C (NM_001867) transcript (A549 cells [3]; [4]): n.s. | Fold change, DHRSX (NM_145177) transcript (A549 cells [3]; [4]): 1.64 | Fold change, EBP (NM_006579) transcript (A549 cells [3]; [4]): n.s. | Fold change, EEF2 (NM_001901) transcript (A549 cells [3]; [4]): n.s. | Fold change, FDXK (NM_003681) transcript (A549 cells [3]; [4]): n.s. | Fold change, FN3KRP (NM_024619) transcript (A549 cells [3]; [4]): −3.34 | Fold change, HDLBP (NM_005336) transcript (A549 cells [3]; [4]): n.s. | Fold change, HGD (NM_000187) transcript (A549 cells [3]; [4]): −2.37 | Fold change, IL6R (NM_000565) transcript (A549 cells [3]; [4]): n.s. | Fold change, KHSRP (NM_003685) transcript (A549 cells [3]; [4]): n.s. | Fold change, LOC389727 (NM_372092) transcript (A549 cells [3]; [4]): 2.09 | Fold change, MAT2A (NM_005911) transcript (A549 cells [3]; [4]): −4.30 | Fold change, MOL1 (NM_021960) transcript (A549 cells [3]; [4]): 1.37 | Fold change, MPP6 (NM_016447) transcript (A549 cells [3]; [4]): −3.80 | Fold change, OSTCL (NM_145303) transcript (A549 cells [3]; [4]): n.s. | Fold change, P5MC5 (NM_002805) transcript (A549 cells [3]; [4]): n.s. | Fold change, PLK1S1 (NM_018474) transcript (A549 cells [3]; [4]): n.s. | Fold change, PPM1J (NM_005167) transcript (A549 cells [3]; [4]): n.s. | Fold change, RNF26 (NM_032015) transcript (A549 cells [3]; [4]): −1.77 | Fold change, RRAD (NM_004185) transcript (A549 cells [3]; [4]): 3.33 | Fold change, SEMA3G (NM_000379) transcript (A549 cells [3]; [4]): n.s. | Fold change, SLC22A16AS (NM_007105) transcript (A549 cells [3]; [4]): −1.43 | Fold change, SOCS6 (NM_004232) transcript (A549 cells [3]; [4]): n.s. | Fold change, TMED1 (NM_006858) transcript (A549 cells [3]; [4]): n.s. | Fold change, TRIP4 (NM_016213) transcript (A549 cells [3]; [4]): n.s. | Fold change, UBE2L3 (NM_003347) transcript (A549 cells [3]; [4]): n.s. | Fold change, UBE21 (NM_014176) transcript (A549 cells [3]; [4]): −2.06 | Fold change, W282 (NM_018029) transcript (A549 cells [3]; [4]): 1.32 | Fold change, ADAR (NM_001111) transcript (A549 cells [3]; [5]): −1.33 | Fold change, ALDH7AT (NM_001182) transcript (A549 cells [3]; [5]): −1.82 | Fold change, CD151 (NM_004357) transcript (A549 cells [3]; [5]): n.s. | Fold change, CLIC1 (NM_001288) transcript (A549 cells [3]; [5]): −1.29 | Fold change, COMMO9 (NM_014186) transcript (A549 cells [3]; [5]): 1.87 | Fold change, COX5B (NM_001802) transcript (A549 cells [3]; [5]): n.s. | Fold change, COX7C (NM_001867) transcript (A549 cells [3]; [5]): n.s. | Fold change, DHRSX (NM_145177) transcript (A549 cells [3]; [5]): 1.38 | Fold change, EBP (NM_006579) transcript (A549 cells [3]; [5]): n.s. | Fold change, EEF2 (NM_001901) transcript (A549 cells [3]; [5]): n.s. | Fold change, FDXK (NM_003681) transcript (A549 cells [3]; [5]): n.s. | Fold change, FN3KRP (NM_024619) transcript (A549 cells [3]; [5]): −2.05 | Fold change, HDLBP (NM_005336) transcript (A549 cells [3]; [5]): n.s. | Fold change, HGD (NM_000187) transcript (A549 cells [3]; [5]): −2.34 | Fold change, IL6R (NM_000565) transcript (A549 cells [3]; [5]): n.s. | Fold change, KHSRP (NM_003685) transcript (A549 cells [3]; [5]): n.s. | Fold change, LOC389727 (NM_372092) transcript (A549 cells [3]; [5]): n.s. | Fold change, MAT2A (NM_005911) transcript (A549 cells [3]; [5]): −3.05 | Fold change, MOL1 (NM_021960) transcript (A549 cells [3]; [5]): 1.07 | Fold change, MPP6 (NM_016447) transcript (A549 cells [3]; [5]): n.s. | Fold change, OSTCL (NM_145303) transcript (A549 cells [3]; [5]): n.s. | Fold change, P5MC5 (NM_002805) transcript (A549 cells [3]; [5]): n.s. | Fold change, PLK1S1 (NM_018474) transcript (A549 cells [3]; [5]): n.s. | Fold change, PPM1J (NM_005167) transcript (A549 cells [3]; [5]): n.s. | Fold change, RNF26 (NM_032015) transcript (A549 cells [3]; [5]): −1.51 | Fold change, RRAD (NM_004185) transcript (A549 cells [3]; [5]): 2.04 | Fold change, SEMA3G (NM_000379) transcript (A549 cells [3]; [5]): n.s. | Fold change, SLC22A16AS (NM_007105) transcript (A549 cells [3]; [5]): −1.53 | Fold change, SOCS6 (NM_004232) transcript (A549 cells [3]; [5]): n.s. | Fold change, TMED1 (NM_006858) transcript (A549 cells [3]; [5]): n.s. | Fold change, TRIP4 (NM_016213) transcript (A549 cells [3]; [5]): n.s. | Fold change, UBE2L3 (NM_003347) transcript (A549 cells [3]; [5]): n.s. | Fold change, UBE21 (NM_014176) transcript (A549 cells [3]; [5]): −1.50 | Fold change, W282 (NM_018029) transcript (A549 cells [3]; [5]): n.s.
